Here are results for 23 compounds from US11021467B2, “Phosphatidylinositol 3-kinase inhibitors” (Gilead Sciences, Inc., priority 2014, dated 2021).

Each structure is given as a SMILES string.

Common to all, as to assay: TR-FRET enzymatic activity assay against PI3K isoforms
Holding throughout (format): biochemical
(Time-resolved FRET reads energy transfer from a long-lived donor to a nearby acceptor.)

In one assay the target is PI3Kβ (Homo sapiens (Human), UniProt P42338). Particulars: PI3Kβ, TR-FRET, 2×Km ATP, 30 minutes at 25° C. The text has this: (§1) The compounds of formula (I) were characterized for their enzymatic activity against the PI3K isoforms. […] TR-FRET monitored the formation of 3,4,5-inositol triphosphate molecule that competed with fluorescently labeled PIP3 for binding to the GRP-1 pleckstrin homology domain protein.
Sequence of PI3Kβ (P42338 whole entry, the tested form may be a part, canonical isoform): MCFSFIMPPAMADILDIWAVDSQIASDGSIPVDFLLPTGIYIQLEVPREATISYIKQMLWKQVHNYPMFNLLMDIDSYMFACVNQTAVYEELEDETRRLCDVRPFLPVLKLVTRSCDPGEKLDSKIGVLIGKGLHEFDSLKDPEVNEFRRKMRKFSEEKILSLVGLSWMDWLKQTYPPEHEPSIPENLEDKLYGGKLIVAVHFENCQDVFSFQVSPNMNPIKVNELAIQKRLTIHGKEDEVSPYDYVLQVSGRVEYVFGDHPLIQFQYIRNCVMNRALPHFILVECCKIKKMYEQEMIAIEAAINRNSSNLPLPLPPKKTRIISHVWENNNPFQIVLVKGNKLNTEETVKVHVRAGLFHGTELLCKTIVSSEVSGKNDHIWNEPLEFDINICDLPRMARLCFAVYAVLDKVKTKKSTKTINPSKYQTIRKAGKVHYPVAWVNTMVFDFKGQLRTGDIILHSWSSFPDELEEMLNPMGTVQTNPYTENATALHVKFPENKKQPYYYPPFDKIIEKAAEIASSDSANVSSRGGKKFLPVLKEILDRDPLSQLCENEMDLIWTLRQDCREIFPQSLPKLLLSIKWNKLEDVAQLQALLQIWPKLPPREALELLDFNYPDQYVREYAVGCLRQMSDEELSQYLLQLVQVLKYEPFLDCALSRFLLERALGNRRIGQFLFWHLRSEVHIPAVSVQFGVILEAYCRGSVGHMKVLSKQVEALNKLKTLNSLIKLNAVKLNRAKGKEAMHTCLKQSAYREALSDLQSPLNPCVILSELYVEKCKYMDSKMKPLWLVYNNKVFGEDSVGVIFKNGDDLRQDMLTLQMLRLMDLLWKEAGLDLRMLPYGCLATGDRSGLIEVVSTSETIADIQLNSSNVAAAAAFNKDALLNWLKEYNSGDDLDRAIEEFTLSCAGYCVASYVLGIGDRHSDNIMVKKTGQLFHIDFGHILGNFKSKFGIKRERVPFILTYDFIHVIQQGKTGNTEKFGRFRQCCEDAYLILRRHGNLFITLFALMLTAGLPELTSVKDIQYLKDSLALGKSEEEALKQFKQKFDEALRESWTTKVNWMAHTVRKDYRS
Sequence of PI3Kβ (P27986 whole entry partner, the tested form may be a part, canonical isoform): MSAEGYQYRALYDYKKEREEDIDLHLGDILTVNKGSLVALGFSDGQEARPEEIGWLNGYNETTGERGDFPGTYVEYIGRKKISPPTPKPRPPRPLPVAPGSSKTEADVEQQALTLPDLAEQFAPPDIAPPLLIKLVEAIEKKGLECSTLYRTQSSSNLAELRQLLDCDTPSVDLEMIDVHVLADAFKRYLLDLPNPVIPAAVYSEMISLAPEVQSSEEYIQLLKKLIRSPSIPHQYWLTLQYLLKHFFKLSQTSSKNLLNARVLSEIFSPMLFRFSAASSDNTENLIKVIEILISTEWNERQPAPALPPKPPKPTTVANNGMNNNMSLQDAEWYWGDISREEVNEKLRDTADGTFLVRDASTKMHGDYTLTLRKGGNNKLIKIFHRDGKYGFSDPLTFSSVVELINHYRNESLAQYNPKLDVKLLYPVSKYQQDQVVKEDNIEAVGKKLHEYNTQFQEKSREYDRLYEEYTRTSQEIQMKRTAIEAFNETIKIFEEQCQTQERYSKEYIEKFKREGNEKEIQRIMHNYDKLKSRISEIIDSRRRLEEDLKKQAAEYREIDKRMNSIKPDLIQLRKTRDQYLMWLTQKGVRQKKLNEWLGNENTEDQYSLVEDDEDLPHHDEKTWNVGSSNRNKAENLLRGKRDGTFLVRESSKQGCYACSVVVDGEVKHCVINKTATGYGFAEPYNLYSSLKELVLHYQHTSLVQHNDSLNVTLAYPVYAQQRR

The target of another assay is PI3Kγ (Homo sapiens (Human), UniProt P48736). Particulars: 2×Km ATP, 30 minutes at 25° C.
Sequence of PI3Kγ (P48736 whole entry): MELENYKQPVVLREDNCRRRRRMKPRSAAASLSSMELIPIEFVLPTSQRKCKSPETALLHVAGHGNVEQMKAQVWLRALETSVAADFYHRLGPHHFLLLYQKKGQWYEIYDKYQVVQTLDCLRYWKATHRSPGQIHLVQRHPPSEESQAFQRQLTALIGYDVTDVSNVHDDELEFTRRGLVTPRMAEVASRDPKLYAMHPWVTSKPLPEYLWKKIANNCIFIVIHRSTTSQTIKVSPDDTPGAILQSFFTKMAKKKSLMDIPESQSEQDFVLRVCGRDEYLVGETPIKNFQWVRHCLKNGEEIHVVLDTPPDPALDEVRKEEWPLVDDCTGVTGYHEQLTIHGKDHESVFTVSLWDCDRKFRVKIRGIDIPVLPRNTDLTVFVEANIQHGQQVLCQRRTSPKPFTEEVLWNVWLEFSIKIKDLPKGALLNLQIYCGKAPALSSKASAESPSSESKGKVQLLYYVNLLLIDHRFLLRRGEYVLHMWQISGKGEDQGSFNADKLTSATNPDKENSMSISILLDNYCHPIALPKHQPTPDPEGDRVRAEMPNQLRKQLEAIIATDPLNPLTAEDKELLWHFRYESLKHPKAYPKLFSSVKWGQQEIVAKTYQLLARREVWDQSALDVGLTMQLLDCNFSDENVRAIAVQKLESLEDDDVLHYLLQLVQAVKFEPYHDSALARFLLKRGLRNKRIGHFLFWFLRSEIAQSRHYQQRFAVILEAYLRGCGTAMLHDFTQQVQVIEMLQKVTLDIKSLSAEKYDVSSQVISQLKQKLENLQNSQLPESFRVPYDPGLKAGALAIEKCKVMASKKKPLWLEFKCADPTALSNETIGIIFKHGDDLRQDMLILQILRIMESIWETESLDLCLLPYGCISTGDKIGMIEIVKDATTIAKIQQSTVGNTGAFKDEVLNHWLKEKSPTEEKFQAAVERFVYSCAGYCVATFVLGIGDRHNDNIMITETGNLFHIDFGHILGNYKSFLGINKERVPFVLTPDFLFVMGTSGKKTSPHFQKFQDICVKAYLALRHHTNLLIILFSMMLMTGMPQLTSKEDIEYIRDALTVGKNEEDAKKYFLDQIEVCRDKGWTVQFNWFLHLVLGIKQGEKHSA
From the text: as §1

For a further assay, the target named is PI3Kδ (Homo sapiens (Human), UniProt O00329). Particulars: 2×Km ATP, 30 minutes at 25° C.
Sequence of PI3Kδ (O00329 whole entry): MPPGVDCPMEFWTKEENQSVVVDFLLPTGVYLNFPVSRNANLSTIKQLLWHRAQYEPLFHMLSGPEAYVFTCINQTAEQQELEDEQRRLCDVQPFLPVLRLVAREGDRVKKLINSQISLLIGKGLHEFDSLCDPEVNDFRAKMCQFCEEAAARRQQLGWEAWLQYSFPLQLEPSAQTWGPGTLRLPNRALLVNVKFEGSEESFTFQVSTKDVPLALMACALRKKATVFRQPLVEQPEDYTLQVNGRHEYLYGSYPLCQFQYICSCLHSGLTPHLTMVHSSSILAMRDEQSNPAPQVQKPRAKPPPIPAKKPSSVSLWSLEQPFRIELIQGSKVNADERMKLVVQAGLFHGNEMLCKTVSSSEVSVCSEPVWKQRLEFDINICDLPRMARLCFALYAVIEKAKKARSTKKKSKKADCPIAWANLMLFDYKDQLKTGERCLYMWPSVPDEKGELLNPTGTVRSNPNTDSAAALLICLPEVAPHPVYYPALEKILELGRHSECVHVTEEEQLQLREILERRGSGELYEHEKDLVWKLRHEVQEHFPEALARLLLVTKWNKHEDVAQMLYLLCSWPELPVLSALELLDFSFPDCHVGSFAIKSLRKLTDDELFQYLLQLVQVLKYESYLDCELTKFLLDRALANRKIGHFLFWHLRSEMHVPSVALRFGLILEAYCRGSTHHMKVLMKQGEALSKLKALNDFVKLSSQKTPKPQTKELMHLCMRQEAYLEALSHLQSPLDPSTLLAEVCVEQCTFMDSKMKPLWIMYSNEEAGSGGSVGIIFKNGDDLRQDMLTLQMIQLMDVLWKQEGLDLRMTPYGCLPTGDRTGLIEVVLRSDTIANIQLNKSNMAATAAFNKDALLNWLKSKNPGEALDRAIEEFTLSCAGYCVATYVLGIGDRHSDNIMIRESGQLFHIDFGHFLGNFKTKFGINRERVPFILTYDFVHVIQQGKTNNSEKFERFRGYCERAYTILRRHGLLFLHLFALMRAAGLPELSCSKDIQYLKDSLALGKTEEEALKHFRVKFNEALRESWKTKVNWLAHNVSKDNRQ
Sequence of PI3Kδ (P27986 whole entry partner): as the sequence (P27986 whole entry partner, the tested form may be a part, canonical isoform) above
From the text: as §1

Take `NCCCn1c([C@@H](Nc2ncnc3ccc(Cl)nc23)C2CC2)nc2cccc(Cl)c2c1=O` [Compound 48, (S)-3-(3-aminopropyl)-5-chloro-2-(((6-chloropyrido[3,2-d]pyrimidin-4-yl)amino)(cyclopropyl)methyl)quinazolin-4(3H)-one]: the IC50 against PI3Kβ came to 0.004 µM; against PI3Kγ, 0.9 µM; against PI3Kδ, 0.004 µM.
For the compound `Cc1nc(N)nc(N[C@H](c2nc3cccc(Cl)c3c(=O)n2CCCN)C2CC2)c1C#N` [Compound 49, (S)-2-amino-4-(((3-(3-aminopropyl)-5-chloro-4-oxo-3,4-dihydroquinazolin-2-yl)(cyclopropyl)methyl)amino)-6-methylpyrimidine-5-carbonitrile], the figures for the IC50 on PI3Kβ, on PI3Kγ and on PI3Kδ were 0.001 µM, 0.75 µM and 0.001 µM, respectively.
Regarding `C[C@H](NC(=O)c1nc(Br)c(N)nc1N)c1nc2cccc(Cl)c2c(=O)n1CCCN` [Compound 50, (S)-3,5-diamino-N-(1-(3-(3-aminopropyl)-5-chloro-4-oxo-3,4-dihydroquinazolin-2-yl)ethyl)-6-bromopyrazine-2-carboxamide], the IC50 came to 0.075 µM at PI3Kβ, 4.6 µM on PI3Kγ and 0.071 µM against PI3Kδ.
On the same counts, the results for `CC(=O)NCCCn1c([C@H](C)Nc2ncnc(N)c2C#N)nc2cccc(Cl)c2c1=O` [Compound 51, (S)—N-(3-(2-(1-((6-amino-5-cyanopyrimidin-4-yl)amino)ethyl)-5-chloro-4-oxoquinazolin-3(4H)-yl)propyl)acetamide] are 0.11 µM, 5.5 µM and 0.008 µM.
Regarding `CC(C)(C)C(=O)NCCCn1c([C@@H](Nc2nc(N)nc(N)c2C#N)C2CC2)nc2cccc(Cl)c2c1=O` [Compound 52, (S)—N-(3-(5-chloro-2-(cyclopropyl((2,6-diamino-5-cyanopyrimidin-4-yl)amino)methyl)-4-oxoquinazolin-3(4H)-yl)propyl)pivalamide], the results for the IC50 at PI3Kβ, on PI3Kγ and against PI3Kδ were 0.029 µM, 1.2 µM and 0.004 µM, respectively.
On to `CC(=O)NCCCn1c([C@@H](Nc2nc(N)nc(N)c2C#N)C2CC2)nc2cccc(Cl)c2c1=O` [Compound 53, (S)—N-(3-(5-chloro-2-(cyclopropyl((2,6-diamino-5-cyanopyrimidin-4-yl)amino)methyl)-4-oxoquinazolin-3(4H)-yl)propyl)acetamide], for which the figures for the IC50 at PI3Kβ, at PI3Kγ and against PI3Kδ were 0.009 µM, 0.19 µM and 0.002 µM, respectively.
On the same counts, the results for `N#Cc1c(N)nc(N)nc1N[C@H](c1nc2cccc(Cl)c2c(=O)n1CCCNC1CCC1)C1CC1` [Compound 54, (S)-2,4-diamino-6-(((5-chloro-3-(3-(cyclobutylamino)propyl)-4-oxo-3,4-dihydroquinazolin-2-yl)(cyclopropyl)methyl)amino)pyrimidine-5-carbonitrile] are 0.005 µM, 0.83 µM and 0.0004 µM.
As to `N#Cc1c(N)nc(N)nc1N[C@H](c1nc2cccc(Cl)c2c(=O)n1CCCNC1COC1)C1CC1` [Compound 55, (S)-2,4-diamino-6-(((5-chloro-3-(3-(oxetan-3-ylamino)propyl)-4-oxo-3,4-dihydroquinazolin-2-yl)(cyclopropyl)methyl)amino)pyrimidine-5-carbonitrile], the figures for the IC50 on PI3Kβ, at PI3Kγ and at PI3Kδ were 0.004 µM, 0.28 µM and 0.0005 µM, respectively.
In the case of `N#Cc1c(N)nc(N)nc1N[C@H](c1nc2cccc(Cl)c2c(=O)n1CCCNC1CCC(F)(F)CC1)C1CC1` [Compound 56, (S)-2,4-diamino-6-(((5-chloro-3-(3-((4,4-difluorocyclohexyl)amino)propyl)-4-oxo-3,4-dihydroquinazolin-2-yl)(cyclopropyl)methyl)amino)pyrimidine-5-carbonitrile], the figures for the IC50 against PI3Kβ, at PI3Kγ and at PI3Kδ were 0.004 µM, 0.54 µM and 0.0004 µM, respectively.
As to `C[C@H](Nc1ncnc(N)c1C#N)c1nc2cccc(Cl)c2c(=O)n1CCCN(C)C` [Compound 57, (S)-4-amino-6-((1-(5-chloro-3-(3-(dimethylamino)propyl)-4-oxo-3,4-dihydroquinazolin-2-yl)ethyl)amino)pyrimidine-5-carbonitrile], the results for the IC50 against PI3Kβ, at PI3Kγ and at PI3Kδ were 0.48 µM, at least 10 µM and 0.006 µM, respectively.
Take `C[C@H](Nc1nc(N)nc(N)c1C#N)c1nc2cccc(Cl)c2c(=O)n1CCN(C)C` [Compound 58, (S)-2,4-diamino-6-((1-(5-chloro-3-(2-(dimethylamino)ethyl)-4-oxo-3,4-dihydroquinazolin-2-yl)ethyl)amino)pyrimidine-5-carbonitrile]: the half-inhibitory concentration (IC50) against PI3Kβ was 0.46 µM; against PI3Kγ, 6.6 µM; against PI3Kδ, 0.024 µM.
On the same counts, the results for `NC(=O)CCCCn1c([C@@H](Nc2nc(N)nc(N)c2Cl)C2CC2)nc2cccc(Cl)c2c1=O` [Compound 59, (S)-5-(5-chloro-2-(cyclopropyl((2,6-diamino-5-chloropyrimidin-4-yl)amino)methyl)-4-oxoquinazolin-3(4H)-yl)pentanamide] are 0.5 µM, 2.2 µM and 0.008 µM.
With `C[C@H](Nc1nc(N)nc(N)c1C#N)c1nc2cccc(Cl)c2c(=O)n1CCCN(C)Cc1ccccc1` [Compound 60, (S)-2,4-diamino-6-((1-(3-(3-(benzyl(methyl)amino)propyl)-5-chloro-4-oxo-3,4-dihydroquinazolin-2-yl)ethyl)amino)pyrimidine-5-carbonitrile], the IC50 against PI3Kβ is 0.15 µM; on PI3Kγ, 6.4 µM; at PI3Kδ, 0.004 µM.
In the case of `Cc1nc(N)nc(N[C@@H](C)c2nc3cccc(Cl)c3c(=O)n2CCCN(C)Cc2ccccc2)c1C#N` [Compound 61, (S)-2-amino-4-((1-(3-(3-(benzyl(methyl)amino)propyl)-5-chloro-4-oxo-3,4-dihydroquinazolin-2-yl)ethyl)amino)-6-methylpyrimidine-5-carbonitrile], the IC50 against PI3Kβ is 0.14 µM; against PI3Kγ it was 6.6 µM; at PI3Kδ, 0.007 µM.
Consider `C[C@H](Nc1nc(N)nc(N)c1C#N)c1nc2cccc(Cl)c2c(=O)n1CCCN(C)CC(F)(F)F` [Compound 62, (S)-2,4-diamino-6-((1-(5-chloro-3-(3-(methyl(2,2,2-trifluoroethyl)amino)propyl)-4-oxo-3,4-dihydroquinazolin-2-yl)ethyl)amino)pyrimidine-5-carbonitrile], for which the IC50 on PI3Kβ was found to be 0.32 µM; on PI3Kγ, 0.96 µM; at PI3Kδ it was 0.004 µM.
As for `N#CCCn1c([C@@H](Nc2nc(N)nc(N)c2Cl)C2CC2)nc2cccc(Cl)c2c1=O` [Compound 63, (S)-3-(5-chloro-2-(cyclopropyl((2,6-diamino-5-chloropyrimidin-4-yl)amino)methyl)-4-oxoquinazolin-3(4H)-yl)propanenitrile], the values for the IC50 against PI3Kβ, against PI3Kγ and on PI3Kδ were 0.64 µM, 0.8 µM and 0.002 µM, respectively.
For `N#Cc1c(N)nc(N)nc1N[C@H](c1nc2cccc(Cl)c2c(=O)n1CCCCC(N)=O)C1CC1` [Compound 64, (S)-5-(5-chloro-2-(cyclopropyl((2,6-diamino-5-cyanopyrimidin-4-yl)amino)methyl)-4-oxoquinazolin-3(4H)-yl)pentanamide], the IC50 at PI3Kβ is 0.012 µM; against PI3Kγ, 0.11 µM; on PI3Kδ, 0.001 µM.
Turning to `N#Cc1c(N)nc(N)nc1N[C@H](c1nc2c(Cl)ccc(Cl)c2c(=O)n1CCCC(N)=O)C1CC1` [Compound 65, (S)-4-(5,8-dichloro-2-(cyclopropyl((2,6-diamino-5-cyanopyrimidin-4-yl)amino)methyl)-4-oxoquinazolin-3(4H)-yl)butanamide], the IC50 against PI3Kβ amounted to 0.007 µM; at PI3Kγ, 0.47 µM; against PI3Kδ, 0.001 µM.
`N#Cc1c(N)nc(N)nc1N[C@H](c1nc2cccc(Cl)c2c(=O)n1CCCC(N)=O)C1CC1` [Compound 66, (S)-4-(5-chloro-2-(cyclopropyl((2,6-diamino-5-cyanopyrimidin-4-yl)amino)methyl)-4-oxoquinazolin-3(4H)-yl)butanamide]: the IC50 turned out to be 0.004 µM at PI3Kβ, 0.097 µM on PI3Kγ and 0.001 µM on PI3Kδ.
`NC(=O)CCn1c([C@@H](Nc2nc(N)nc(N)c2Cl)C2CC2)nc2cccc(Cl)c2c1=O` [Compound 68, (S)-3-(5-chloro-2-(cyclopropyl((2,6-diamino-5-chloropyrimidin-4-yl)amino)methyl)-4-oxoquinazolin-3(4H)-yl)propanamide]: the values for the IC50 at PI3Kβ, against PI3Kγ and on PI3Kδ were 0.52 µM, 1 µM and 0.005 µM, respectively.
In the case of `NC(=O)CCCn1c([C@@H](Nc2nc(N)nc(N)c2Cl)C2CC2)nc2cccc(Cl)c2c1=O` [Compound 69, (S)-4-(5-chloro-2-(cyclopropyl((2,6-diamino-5-chloropyrimidin-4-yl)amino)methyl)-4-oxoquinazolin-3(4H)-yl)butanamide], the values for the IC50 against PI3Kβ, on PI3Kγ and against PI3Kδ were 0.049 µM, 1.3 µM and 0.002 µM, respectively.
Turning to `C[C@H](Nc1ncnn2ccnc12)c1nc2cccc(Cl)c2c(=O)n1CCCN` [Compound 71, (S)-3-(3-aminopropyl)-5-chloro-2-(1-(imidazo[2,1-f][1,2,4]triazin-4-ylamino)ethyl)quinazolin-4(3H)-one], the IC50 at PI3Kβ is 0.24 µM; on PI3Kγ it was at least 10 µM; against PI3Kδ it was 0.034 µM.
In the case of `C[C@H](Nc1ncnc2scnc12)c1nc2cccc(Cl)c2c(=O)n1CCCN` [Compound 72, (S)-3-(3-aminopropyl)-5-chloro-2-(1-(thiazolo[5,4-d]pyrimidin-7-ylamino)ethyl)quinazolin-4(3H)-one], the IC50 at PI3Kβ was found to be 0.035 µM; against PI3Kγ, 7.9 µM; on PI3Kδ it was 0.012 µM.

By IC50 is commonly meant the concentration needed to halve the response being measured. High values mean a need for much substance, low ones inhibition by little substance.
